Source: patent US10392391B2 (Vertex Pharmaceuticals Incorporated, priority 2012, dated 2019)
Like-named read-outs stand apart in the source and are kept apart here.

Legend:
[1] = molecular target: ATR kinase (full-length ATR) (Homo sapiens (Human), UniProt Q13535); assay: ATR inhibition assay (radioactive-phosphate incorporation); assay type: biochemical
Summary of the method: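 Radiometric 33P incorporation by 5 nM full-length ATR into 800 μM target peptide with 10 μM [γ-33P]ATP, in 50 mM Tris/HCl pH 7.5, 10 mM MgCl2, 1 mM DTT, 7% DMSO, 25° C. Compound pre-incubated 10 minutes; reaction stopped after 24 hours, captured on phosphocellulose. Ki(app) from non-linear regression of initial rates.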

[2] = molecular target: ATR kinase, in the presence of partner proteins ATRIP, CLK2 and TopBP1 (Homo sapiens (Human), UniProt Q13535); assay: ATR-complex inhibition assay (radioactive-phosphate incorporation); assay type: biochemical; settings: Ki(app); 4 nM full-length ATR, 40 nM ATRIP, 40 nM CLK2, 600 nM TopBP1; 10 μM ATP; 25° C.
ATR kinase, in the presence of partner proteins ATRIP, CLK2 and TopBP1, sequence (Q13535 whole entry): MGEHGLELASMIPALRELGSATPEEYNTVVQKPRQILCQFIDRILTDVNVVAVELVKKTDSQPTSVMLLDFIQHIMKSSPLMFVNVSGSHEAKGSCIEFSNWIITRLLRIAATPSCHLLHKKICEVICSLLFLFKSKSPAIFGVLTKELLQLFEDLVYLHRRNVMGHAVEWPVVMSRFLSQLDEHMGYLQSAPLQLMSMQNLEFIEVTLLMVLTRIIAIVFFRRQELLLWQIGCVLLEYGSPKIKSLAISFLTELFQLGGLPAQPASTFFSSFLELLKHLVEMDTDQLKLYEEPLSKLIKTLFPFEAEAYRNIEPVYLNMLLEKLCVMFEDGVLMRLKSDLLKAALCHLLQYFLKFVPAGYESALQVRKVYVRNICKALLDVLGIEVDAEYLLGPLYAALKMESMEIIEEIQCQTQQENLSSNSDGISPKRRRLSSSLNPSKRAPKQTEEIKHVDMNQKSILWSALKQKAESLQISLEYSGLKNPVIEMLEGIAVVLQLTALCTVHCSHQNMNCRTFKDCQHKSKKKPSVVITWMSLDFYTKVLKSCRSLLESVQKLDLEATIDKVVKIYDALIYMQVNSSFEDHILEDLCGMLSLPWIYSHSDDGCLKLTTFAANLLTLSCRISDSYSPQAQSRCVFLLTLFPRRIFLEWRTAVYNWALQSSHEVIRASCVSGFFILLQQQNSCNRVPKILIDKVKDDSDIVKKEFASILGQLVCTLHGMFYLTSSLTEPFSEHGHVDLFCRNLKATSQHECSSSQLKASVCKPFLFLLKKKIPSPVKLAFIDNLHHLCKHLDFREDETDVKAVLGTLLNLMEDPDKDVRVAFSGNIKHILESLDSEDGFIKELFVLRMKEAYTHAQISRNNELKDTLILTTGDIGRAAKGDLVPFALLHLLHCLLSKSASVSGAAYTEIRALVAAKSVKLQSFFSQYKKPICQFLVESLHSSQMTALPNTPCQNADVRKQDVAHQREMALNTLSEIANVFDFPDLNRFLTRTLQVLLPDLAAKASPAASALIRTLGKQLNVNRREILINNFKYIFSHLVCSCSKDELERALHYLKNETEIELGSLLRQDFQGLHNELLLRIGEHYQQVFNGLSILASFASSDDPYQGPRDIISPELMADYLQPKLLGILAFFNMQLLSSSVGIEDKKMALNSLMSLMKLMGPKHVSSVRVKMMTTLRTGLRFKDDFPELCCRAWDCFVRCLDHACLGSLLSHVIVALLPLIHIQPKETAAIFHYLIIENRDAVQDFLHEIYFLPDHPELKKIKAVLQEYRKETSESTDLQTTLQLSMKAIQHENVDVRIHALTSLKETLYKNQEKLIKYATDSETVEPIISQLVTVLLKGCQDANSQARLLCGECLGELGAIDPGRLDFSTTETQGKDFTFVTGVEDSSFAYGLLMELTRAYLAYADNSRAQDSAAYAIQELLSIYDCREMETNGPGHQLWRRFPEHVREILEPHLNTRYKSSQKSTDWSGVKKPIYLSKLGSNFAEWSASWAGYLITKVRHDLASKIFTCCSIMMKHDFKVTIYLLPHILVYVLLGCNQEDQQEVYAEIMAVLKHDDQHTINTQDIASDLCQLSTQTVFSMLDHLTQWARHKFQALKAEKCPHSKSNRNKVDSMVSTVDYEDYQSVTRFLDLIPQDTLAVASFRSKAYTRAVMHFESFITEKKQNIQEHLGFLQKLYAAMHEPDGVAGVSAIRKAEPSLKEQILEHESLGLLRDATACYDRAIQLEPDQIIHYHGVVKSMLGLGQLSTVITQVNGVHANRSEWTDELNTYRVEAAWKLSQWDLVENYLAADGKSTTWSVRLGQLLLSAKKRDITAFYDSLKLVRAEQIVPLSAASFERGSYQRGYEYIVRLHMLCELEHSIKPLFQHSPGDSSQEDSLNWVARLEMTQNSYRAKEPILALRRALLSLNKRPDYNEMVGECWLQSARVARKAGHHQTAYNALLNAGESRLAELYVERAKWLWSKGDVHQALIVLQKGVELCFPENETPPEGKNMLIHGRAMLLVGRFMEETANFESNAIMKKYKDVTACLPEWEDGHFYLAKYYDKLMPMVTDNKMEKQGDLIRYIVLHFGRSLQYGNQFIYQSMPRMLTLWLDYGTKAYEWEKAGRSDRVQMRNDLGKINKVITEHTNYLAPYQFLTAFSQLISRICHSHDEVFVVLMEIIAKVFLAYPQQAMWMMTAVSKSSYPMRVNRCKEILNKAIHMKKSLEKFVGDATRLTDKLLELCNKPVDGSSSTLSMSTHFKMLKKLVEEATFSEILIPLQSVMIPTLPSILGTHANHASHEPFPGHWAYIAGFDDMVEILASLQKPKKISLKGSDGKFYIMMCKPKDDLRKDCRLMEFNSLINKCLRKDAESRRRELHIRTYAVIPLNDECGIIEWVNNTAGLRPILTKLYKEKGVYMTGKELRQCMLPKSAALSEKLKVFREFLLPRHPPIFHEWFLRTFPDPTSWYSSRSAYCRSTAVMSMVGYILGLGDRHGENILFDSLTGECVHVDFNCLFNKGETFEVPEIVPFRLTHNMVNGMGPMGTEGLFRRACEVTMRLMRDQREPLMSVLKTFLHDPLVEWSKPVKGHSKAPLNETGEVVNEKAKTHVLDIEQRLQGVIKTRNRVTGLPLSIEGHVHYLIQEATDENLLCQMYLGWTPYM
ATR kinase, in the presence of partner proteins ATRIP, CLK2 and TopBP1, sequence (Q8WXE1 whole entry partner): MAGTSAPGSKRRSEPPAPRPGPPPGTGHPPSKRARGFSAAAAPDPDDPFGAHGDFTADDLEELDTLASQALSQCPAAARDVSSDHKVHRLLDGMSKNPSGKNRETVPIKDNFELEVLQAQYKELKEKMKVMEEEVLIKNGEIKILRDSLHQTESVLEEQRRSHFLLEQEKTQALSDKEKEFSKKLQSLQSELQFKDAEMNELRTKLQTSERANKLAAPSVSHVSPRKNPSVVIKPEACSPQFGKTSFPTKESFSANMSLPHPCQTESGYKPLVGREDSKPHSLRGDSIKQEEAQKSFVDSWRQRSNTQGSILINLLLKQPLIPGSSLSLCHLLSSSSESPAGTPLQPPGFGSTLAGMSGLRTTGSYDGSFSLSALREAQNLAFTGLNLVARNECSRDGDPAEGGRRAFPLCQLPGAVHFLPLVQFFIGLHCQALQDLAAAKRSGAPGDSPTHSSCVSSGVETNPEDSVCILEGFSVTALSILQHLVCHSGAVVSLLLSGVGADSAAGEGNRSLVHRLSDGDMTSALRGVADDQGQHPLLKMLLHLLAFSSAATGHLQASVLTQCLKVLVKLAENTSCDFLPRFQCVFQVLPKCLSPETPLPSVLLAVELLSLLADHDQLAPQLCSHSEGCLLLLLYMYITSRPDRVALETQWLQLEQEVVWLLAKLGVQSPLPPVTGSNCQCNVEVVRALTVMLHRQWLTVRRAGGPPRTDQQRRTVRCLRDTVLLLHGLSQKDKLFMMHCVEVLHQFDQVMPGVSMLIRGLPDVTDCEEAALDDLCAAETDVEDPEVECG
Method: Compounds were screened for their ability to inhibit ATR kinase, in the presence of partner proteins ATRIP, CLK2 and TopBP1, using a radioactive-phosphate incorporation assay. Assays were carried out in a mixture of 50 mM Tris/HCl (pH 7.5), 10 mM MgCl2 and 1 mM DTT. Final substrate concentrations were 10 μM [g-33P]ATP (3.5 μCi 33P ATP/nmol ATP, Perkin Elmer, Massachusetts, USA) and 800 μM target peptide ([…]) (SEQ ID NO: 1); Isca Biochemicals, Cambridgeshire, UK).
Assays were carried out at 25° C. in the presence of 4 nM full-length ATR, 40 nM full-length ATRIP, 40 nM full-length CLK2 and 600 nM TopBP1 (A891-S1105). An enzyme stock buffer solution was prepared containing all of the reagents listed above, with the exception of target peptide, ATP and the test compound of interest. This enzyme stock was pre-incubated for 30 minutes at 25° C. 8.5 μL of the enzyme stock solution was placed in a 96-well plate followed by addition of 5 μl of target peptide and 2 μL of DMSO stock containing serial dilutions of the test compound (typically starting from a final concentration of 1.5 μM with 2.5-fold serial dilutions) in duplicate (final DMSO concentration 7%). The plate was pre-incubated for 10 minutes at 25° C. and the reaction initiated by addition of 15 μL [g-33P]ATP (final concentration 10 μM).
The reaction was stopped after […] by the addition of 30 μL 0.3 M phosphoric acid containing 2 mM ATP. A phosphocellulose filter 96-well plate (Multiscreen HTS MAPHNOB50, Merck-Millipore, Massachusetts, USA) was pretreated with 100 μL 0.1 M phosphoric acid prior to the addition of 45 μL of the stopped assay mixture. The plate was washed with 5×200 μL 0.1 M phosphoric acid. After drying, 50 μL Optiphase ‘SuperMix’ liquid scintillation cocktail (Perkin Elmer, Massachusetts, USA) was added to the well prior to scintillation counting (Wallac 1450 Microbeta Liquid Scintillation Counter, Perkin Elmer, Massachusetts, USA).
After removing mean background values for all of the data points, Ki(app) data were calculated from non-linear regression analysis of the initial rate data using the Prism software package (GraphPad Prism version 6.0c for Macintosh, GraphPad Software Inc., San Diego, USA).
Compounds with a Cisplatin sensitization value of <0.02 μM are marked with “+++.” Compounds with a Ki value >0.02 μM but <0.2 μM are marked with “++.” Compounds with a Ki value >0.2 μM but <5 μM are marked with “+.”

[3] = test system: HCT116 colorectal cancer cells; assay: Cisplatin sensitization assay, 96 h cell viability (MTS); assay type: cell-based; settings: 96 h MTS, concentration of compound required to reduce the IC50 of Cisplatin
Method: Compounds can be screened for their ability to sensitize HCT116 colorectal cancer cells to Cisplatin using a 96 h cell viability (MTS) assay. […] Compounds and Cisplatin are then both added simultaneously to the cell media in 2-fold serial dilutions from a top final concentration of 10 μM as a full matrix of concentrations in a final cell volume of 200 μl, and the cells are then incubated at 37° C. in 5% CO2. After 96 h, 40 μl of MTS reagent (Promega G358a) is added to each well and the cells are incubated for 1 h at 37° C. in 5% CO2.
Compounds with a Cisplatin sensitization value of <0.02 μM are marked with “+++.” Compounds with a Cisplatin sensitization value >0.02 μM but <0.2 μM are marked with “++.” Compounds with a Cisplatin sensitization value >0.2 μM but <5 μM are marked with “+.”

[4] = Ki(app), 5 nM full-length ATR, 10 μM ATP, 25° C.

ATR kinase (full-length ATR), sequence (Q13535 whole entry): as the sequence (Q13535 whole entry) above

Row | Compound | Ki [1, 4] [nM] | Ki [2] [nM] | Cisplatin Sensitization Assay [3] | Ki [1] [nM]
1 | CN1CCN(C(=O)c2ccc(-c3ccncc3NC(=O)c3c(N)nn4cc(F)cnc34)cc2)CC1 [I-C-25, 2-amino-6-fluoro-N-(4-(4-(4-methylpiperazine-1-carbonyl)phenyl)pyridin-3-yl)pyrazolo[1,5-a]pyrimidine-3-carboxamide] | 10 to 1000 | < 20 |  | 
2 | CN1CCN(C(=O)C2CCN(c3c(F)cncc3NC(=O)c3c(N)nn4cc(F)cnc34)CC2)CC1 [I-G-4, 2-amino-6-fluoro-N-(5-fluoro-4-(4-(4-methylpiperazine-1-carbonyl)piperidin-1-yl)pyridin-3-yl)pyrazolo[1,5-a]pyrimidine-3-carboxamide] | 10 to 1000 | < 20 |  | 
3 | CN1CCN(C(=O)c2ccc(-c3c(F)cncc3NC(=O)c3c(N)nn4cc(F)cnc34)cc2)CC1 [I-C-43, 2-amino-6-fluoro-N-(5-fluoro-4-(4-(4-methylpiperazine-1-carbonyl)phenyl)pyridin-3-yl)pyrazolo[1,5-a]pyrimidine-3-carboxamide] | 10 to 1000 | < 20 |  | 
4 | CNCCCN(C)C(=O)C1CCN(c2c(F)cncc2NC(=O)c2c(N)nn3cc(F)cnc23)CC1 [I-G-17] | 1000 to 5000 |  | + (Compounds with a Cisplatin sensitization value >0.2 μM but <5 μM are marked with “+.”) | 
5 | Nc1nn2cc(F)cnc2c1C(=O)Nc1cncc(F)c1N1CCN2C(=O)CC[C@@H]2C1 [I-N-186, (R)-2-amino-6-fluoro-N-(5-fluoro-4-(6-oxohexahydropyrrolo[1,2-a]pyrazin-2(1H)-yl)pyridin-3-yl)pyrazolo[1,5-a]pyrimidine-3-carboxamide] | 10 to 1000 | < 20 |  | 
6 | CC(=O)N1CCN(c2c(F)cncc2NC(=O)c2c(N)nn3cc(F)cnc23)CC1 [I-N-275, N-(4-(4-acetylpiperazin-1-yl)-5-fluoropyridin-3-yl)-2-amino-6-fluoropyrazolo[1,5-a]pyrimidine-3-carboxamide] | 10 to 1000 | < 20 |  | 
7 | Nc1nn2cc(Cl)cnc2c1C(=O)Nc1cnccc1N1CCN(C2COC2)CC1 [I-N-58, 2-amino-6-chloro-N-(4-(4-(oxetan-3-yl)piperazin-1-yl)pyridin-3-yl)pyrazolo[1,5-a]pyrimidine-3-carboxamide] | 10 to 1000 | < 20 |  | 
8 | Nc1nn2cc(F)cnc2c1C(=O)Nc1cncc(F)c1N1CCC(C(=O)N2CCNCC2)CC1 [I-G-12, 2-amino-6-fluoro-N-(5-fluoro-4-(4-(piperazine-1-carbonyl)piperidin-1-yl)pyridin-3-yl)pyrazolo[1,5-a]pyrimidine-3-carboxamide] | 10 to 1000 | < 20 |  | 
9 | Nc1nn2cc(F)cnc2c1C(=O)Nc1cncc(F)c1N1CCN(C2COC2)CC1 [I-N-13, 2-amino-6-fluoro-N-(5-fluoro-4-(4-(oxetan-3-yl)piperazin-1-yl)pyridin-3-yl)pyrazolo[1,5-a]pyrimidine-3-carboxamide] | 10 to 1000 | < 20 |  | 
10 | COC1CN(C(=O)C2CCN(c3c(F)cncc3NC(=O)c3c(N)nn4cc(F)cnc34)CC2)C1 [I-G-21, 2-amino-6-fluoro-N-(5-fluoro-4-(4-(3-methoxyazetidine-1-carbonyl)piperidin-1-yl)pyridin-3-yl)pyrazolo[1,5-a]pyrimidine-3-carboxamide] | 10 to 1000 | < 20 |  | 
11 | CN1CCN(S(=O)(=O)C2CCN(c3c(F)cncc3NC(=O)c3c(N)nn4cc(F)cnc34)CC2)CC1 [I-N-166, 2-amino-6-fluoro-N-(5-fluoro-4-(4-((4-methylpiperazin-1-yl)sulfonyl)piperidin-1-yl)pyridin-3-yl)pyrazolo[1,5-a]pyrimidine-3-carboxamide] | 10 to 1000 | < 20 |  | 
12 | Nc1nn2cc(F)cnc2c1C(=O)Nc1cncc(F)c1N1CCNCC1 [I-N-118, 2-amino-6-fluoro-N-(5-fluoro-4-(piperazin-1-yl)pyridin-3-yl)pyrazolo[1,5-a]pyrimidine-3-carboxamide] | 10 to 1000 | < 20 |  | 
13 | Nc1nn2cc(F)cnc2c1C(=O)Nc1cncc(F)c1N1CCC(C(=O)N2CCN3CCC2CC3)CC1 [I-G-7, N-(4-(4-(1,4-diazabicyclo[3.2.2]nonane-4-carbonyl)piperidin-1-yl)-5-fluoropyridin-3-yl)-2-amino-6-fluoropyrazolo[1,5-a]pyrimidine-3-carboxamide] |  | < 20 |  | 10 to 1000
